Assays:
[1] = Drug concentration in rat at 2 mg/kg, po measured after 24 hrs; format: ADME, organism-based; conditions: in vivo; for concentration at 24 h: read-out: Drug uptake; for Drug uptake: po, 2 mg/kg, 24 h, BLD = below limit of detection
[2] = AUClast in rat at 2 mg/kg, po; format: ADME, organism-based; parameters: time 0 - last, dose 2 mg/kg, route po; conditions: in vivo
[3] = Volume of distribution at steady state in dog at 1 mg/kg, po or 0.5 mg/kg, iv; format: ADME, organism-based, Canis lupus familiaris; conditions: in vivo
[4] = Volume of distribution at steady state in cynomolgus monkey at 1 mg/kg, po or 0.5 mg/kg, iv; format: ADME, organism-based, Macaca fascicularis; conditions: in vivo
[5] = Oral bioavailability in rat at 2 mg/kg; format: ADME, organism-based; conditions: in vivo
[6] = Volume of distribution at steady state in rat at 2 mg/kg, po or 0.5 mg/kg, iv; format: ADME, organism-based; conditions: in vivo
[7] = Oral bioavailability in dog at 1 mg/kg; format: ADME, organism-based, Canis lupus familiaris; conditions: in vivo
[8] = Oral bioavailability in cynomolgus monkey at 1 mg/kg; format: ADME, organism-based, Macaca fascicularis; conditions: in vivo

SMILES | concentration at 24 h [1] [nM] | AUC(0-t) [2] [µM·h] | also measured
COc1cc(OCc2cccc(-c3ccoc3)c2)c2cc(-c3cn4nc(OC)sc4n3)oc2c1 | 140 | 10.9 | 
COc1cc(OCc2cccc(OCc3ccccc3)c2)c2cc(-c3cn4nc(OC)sc4n3)oc2c1 | 3 | 0.66 | 
COc1cc(OCc2csc(-c3ccc(C(N)=O)cc3)n2)c2cc(-c3cn4nc(OC)sc4n3)oc2c1 |  |  | Drug uptake [1]: Bld
CNC(=O)c1ccc(-c2nc(COc3cc(OC)cc4oc(-c5cn6nc(OC)sc6n5)cc34)cs2)cc1 |  | 0.04 | Drug uptake [1]: Bld
COc1cc(OCc2csc(C3CCOCC3)n2)c2cc(-c3cn4nc(OC)sc4n3)oc2c1 | 28 | 3.7 | 
COc1cc(OCc2csc(-c3ccc(C(F)(F)F)cc3)n2)c2cc(-c3cn4nc(OC)sc4n3)oc2c1 | 9 | 1.3 | 
COc1cc(OCc2cccc(-c3cnc(OC)cn3)c2)c2cc(-c3cn4nc(OC)sc4n3)oc2c1 | 7.7 | 1.4 | 
COc1cc(OCc2cccc(-c3cnc(OC)nc3)c2)c2cc(-c3cn4nc(OC)sc4n3)oc2c1 | 29 | 2 | 
COc1cc(OCc2coc(N3CCOCC3)n2)c2cc(-c3cn4nc(OC)sc4n3)oc2c1 | 69 | 13.1 | 
COc1cc(OCc2csc(N3CCCCC3)n2)c2cc(-c3cn4nc(OC)sc4n3)oc2c1 | 340 | 21.6 | 
COc1cc(OCc2cccc(-c3ccc(C#N)cc3)c2)c2cc(-c3cn4nc(OC)sc4n3)oc2c1 | 13 | 1.2 | 
COc1cc(OCc2csc(N3CCOCC3)n2)c2cc(-c3cn4nc(OC)sc4n3)oc2c1 | 240 | 16.2 | 
COc1cc(OCc2cccc(-c3ccc(C#N)cn3)c2)c2cc(-c3cn4nc(OC)sc4n3)oc2c1 | 13 | 0.91 | 
COc1cc(OCc2csc(C3CCC(F)(F)CC3)n2)c2cc(-c3cn4nc(OC)sc4n3)oc2c1 | 21 | 0.8 | 
COc1ccc(-c2cccc(COc3cc(OC)cc4oc(-c5cn6nc(OC)sc6n5)cc34)c2)nc1 | 22 | 3.3 | 
COc1cc(OCc2nc(N3CCOCC3)sc2C)c2cc(-c3cn4nc(OC)sc4n3)oc2c1 | 230 |  | Vdss [3]: 5.9 L/kg; Vdss [4]: 11 L/kg; F [5]: 21%; Vdss [6]: 1.4 L/kg; AUClast [2]: 23.7 µM·h; bioavailability [7]: 19%; bioavailability [8]: 26%
COc1cc(OCc2ccnc(N3CCOCC3)n2)c2cc(-c3cn4nc(OC)sc4n3)oc2c1 | 86 | 7.5 | 

SMILES | concentration at 24 h [1] [nM] | AUC(0-t) [2] [µM·h] | also measured
COc1cc(OCc2nc(N3CCOCC3)sc2C(F)(F)F)c2cc(-c3cn4nc(OC)sc4n3)oc2c1 | 14 | 2.4 | 
COc1cc(OCc2csc(-c3ccc(C(=O)N(C)C)cc3)n2)c2cc(-c3cn4nc(OC)sc4n3)oc2c1 [BMS-986141] | 4.7 |  | Vdss [3]: 2.7 L/kg; Vdss [4]: 14 L/kg; F [5]: 31%; Vdss [6]: 2.7 L/kg; AUClast [2]: 3.1 µM·h; bioavailability [7]: 25%; bioavailability [8]: 36%
COc1cc(OCc2cccc(-c3ccc(C(F)(F)F)cn3)c2)c2cc(-c3cn4nc(OC)sc4n3)oc2c1 |  | 0.83 | Drug uptake [1]: Bld
COc1cc(OCc2cccc(-c3ccc(OC)nc3)c2)c2cc(-c3cn4nc(OC)sc4n3)oc2c1 | 19 | 3.5 | 
COc1cc(OCc2csc(-c3ccccc3)n2)c2cc(-c3cn4nc(OC)sc4n3)oc2c1 | 89 | 8 | 
COc1cc(OCc2csc(N3CC4CCC(C3)O4)n2)c2cc(-c3cn4nc(OC)sc4n3)oc2c1 | 12 | 1.9 | 
COc1cc(OCc2csc(-c3ccc(C(=O)N4CCC(F)(F)C4)cc3)n2)c2cc(-c3cn4nc(OC)sc4n3)oc2c1 | 1.8 | 0.58 | 
COc1cc(OCc2csc(-c3ccc(S(C)(=O)=O)cc3)n2)c2cc(-c3cn4nc(OC)sc4n3)oc2c1 | 2 | 0.26 | 
COc1cc(OCc2cc(C(F)(F)F)ccc2C)c2cc(-c3cn4nc(OC)sc4n3)oc2c1 | 12 | 1.9 | 
COc1cc(OCc2csc(-c3ccc(C(=O)N4CCCC4)cc3)n2)c2cc(-c3cn4nc(OC)sc4n3)oc2c1 | 4.7 | 3 | 
COc1cc(OCc2cccc(N3CCOCC3)n2)c2cc(-c3cn4nc(OC)sc4n3)oc2c1 | 93 | 7.3 | 
COc1cc(OCc2ccnc(-c3ccccc3)n2)c2cc(-c3cn4nc(OC)sc4n3)oc2c1 | 94 | 7.4 | 
COc1cc(OCc2csc(N3CCN(C)CC3)n2)c2cc(-c3cn4nc(OC)sc4n3)oc2c1 | 5 | 1.8 | 
COc1cc(OCc2ccccc2)c2cc(-c3cn4nc(OC)sc4n3)oc2c1 | 46 | 5.5 | 
COc1cc(OCc2csc(N3CCCOCC3)n2)c2cc(-c3cn4nc(OC)sc4n3)oc2c1 | 49 | 5 | 
COc1cc(OCc2csc(-c3ccc(C(C)(C)O)cc3)n2)c2cc(-c3cn4nc(OC)sc4n3)oc2c1 | 6.7 | 0.92 | 

— ChEMBL document CHEMBL5143717 (J Med Chem, 2022)
